# Results published in patent US10881642B2, “Autophagy enhancer and use thereof” (Industry-Academic Cooperation Foundation, Yonsei University, priority 2016, dated 2021).
# Peptide text beside a SMILES is read from it. * marks the point of attachment. βNA = c1ccc2cc(N*)ccc2c1
# Test system: HeLa cells
# Experiment: GCaMP3-ML1 lysosomal Ca2+ release imaging
# Assay type: cell-based
# Settings: GPN 200 μM; ionomycin 1 μM
# Description: HeLa cells were transfected with perilysosomal GCaMP3-ML1 calcium probe, and Ratiometric image (474 and 410 nm excitation) was obtained.
# GCaMP3 Ca2+ Imaging. HeLa cells were grown on 15 mm coverslips and transfected with plasmid encoding the perilysosomal-localized ML1-GCaMP3 calcium probes.
row,Structure (SMILES),lysosomal Ca2+ release
1,NCC(=O)N[C@@H](Cc1ccccc1)C(=O)Nc1ccc2ccccc2c1 [GPN] (H-Gly-Phe-βNA),induced lysosomal Ca2+ release
2,C[C@H](CCC(=O)O)C[C@H](C)C[C@H](C)C(=O)/C=C(\O)[C@H](C)C[C@H](C)C/C=C/[C@@H](C)[C@@H](O)[C@@H](C)[C@@H](O)C[C@@H]1CC[C@@](C)([C@H]2CC[C@@](C)([C@@H](C)O)O2)O1 [ionomycin],induced lysosomal Ca2+ release
